Test results published in publication PMC9305623, “Next generation GLP-1/GIP/glucagon triple agonists normalize body weight in obese mice” (Molecular Metabolism, 2022).
*1 amine or outer side, *2 acyl side, *3 side chain or, on linkers, in order; H or OH if unused. Where a SMILES comes first, the peptide text is derived from it. Side-chain parts run from the residue outwards. [ ]: non-standard residue; d: D form. The star is where a group is joined. C20 diacid = O=C(O)CCCCCCCCCCCCCCCCCCC(=O)*; γGlu = O=C(O)[C@H](CCC(=O)[*:2])N[*:1]; εLys = N[C@@H](CCCCN[*:1])C(=O)[*:2]; AEEA = NCCOCCOCC(=O)O; Aib = CC(C)(N)C(=O)O

How the values were obtained:
Assay in all cases: Receptor activation: cAMP production by CRE-luciferase reporter in stably transfected BHK cells
Format in all cases: cell-based
hGLP-1 Receptor = biological target: T1, hGLP-1 Receptor (Homo sapiens, UniProt P43220); conditions: for hGLP-1 Receptor Relative Potency %: compared to the native ligand for the receptor
T1 construct: expressed in transfected cells; host or cells: baby hamster kidney (BHK) cells, stably transfected, with CRE-firefly luciferase reporter
Method: (§1) Cyclic AMP (cAMP) production was assessed as a proxy for receptor activation using stably transfected baby hamster kidney (BHK) cell lines expressing the DNA for one individual receptor (GLP-1R, GIPR, GcgR; human- or mouse-specific sequence) and the DNA for the firefly luciferase reporter gene linked to the cAMP response element (CRE). The cells were kept in continuous culture at 37 °C and 5% CO2 in Dulbecco's Modified Eagle Medium (DMEM) supplemented with 10% heat-inactivated fetal bovine serum (HI-FBS), 300 μg/mL hygromycin, and 500 μg/mL G418; for cell lines expressing GIPR, the G418 concentration was lowered to 400 μg/mL. Cells were plated in a 96-well poly-D-lysine-coated plate at 5,000 cells per well in growth media and incubated overnight at 37 °C with 5% CO2. After the overnight incubation, the media was removed, the plate was washed once in Dulbecco's phosphase-buffered saline (DPBS), and 50 μL of assay buffer (DMEM without phenol red, 10 mM HEPES, 1x Glutamax, 1% ovalbumin, 0.1% Pluronic F-68) was added to each well. […] Aliquots of the dilution curves were added to the cell plate in a volume of 50 μL per well resulting in final assay concentrations ranging from 1 × 10^−14 to 1 × 10^−7 M. The assay plate was incubated for 3 h at 37 °C and 5% CO2. After the incubation, the assay plate was washed once with DPBS. A 100 μL aliquot of DPBS was added to each well followed by 100 μL of steadylite plus reagent (PerkinElmer). The assay plate was covered to protect reagent from light, shaken at 250 rpm at room temperature for 30 min, and read in a microtiter plate reader. EC50 values were calculated using Prism software (GraphPad) with the nonlinear regression log(agonist) vs. response. A minimum of two replicates were measured for each sample.

hGIP Receptor = biological target: T2, hGIP Receptor (Homo sapiens, UniProt P48546); conditions: for hGIP Receptor Relative Potency %: compared to the native ligand for the receptor
T2 construct: expressed in transfected cells; host or cells: baby hamster kidney (BHK) cells, stably transfected, with CRE-firefly luciferase reporter
T2 sequence (P48546 22-466): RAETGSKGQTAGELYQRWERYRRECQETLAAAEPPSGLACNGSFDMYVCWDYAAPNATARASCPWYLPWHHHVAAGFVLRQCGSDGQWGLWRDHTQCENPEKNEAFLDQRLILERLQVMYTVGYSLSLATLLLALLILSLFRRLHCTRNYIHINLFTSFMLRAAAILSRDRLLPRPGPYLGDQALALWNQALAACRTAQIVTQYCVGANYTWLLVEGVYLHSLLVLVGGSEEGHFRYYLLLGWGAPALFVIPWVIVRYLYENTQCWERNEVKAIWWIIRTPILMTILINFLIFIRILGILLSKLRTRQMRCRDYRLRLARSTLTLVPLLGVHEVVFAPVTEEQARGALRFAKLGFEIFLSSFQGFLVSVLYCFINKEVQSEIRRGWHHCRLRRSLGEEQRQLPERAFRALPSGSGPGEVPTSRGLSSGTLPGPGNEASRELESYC
Method: as §1

hGcg Receptor = biological target: T3, hGcg Receptor (Homo sapiens, UniProt P47871); conditions: for hGcg Receptor Relative Potency %: compared to the native ligand for the receptor
T3 construct: expressed in transfected cells; host or cells: baby hamster kidney (BHK) cells, stably transfected, with CRE-firefly luciferase reporter
Method: as §1

T3 sequence (P47871 26-477): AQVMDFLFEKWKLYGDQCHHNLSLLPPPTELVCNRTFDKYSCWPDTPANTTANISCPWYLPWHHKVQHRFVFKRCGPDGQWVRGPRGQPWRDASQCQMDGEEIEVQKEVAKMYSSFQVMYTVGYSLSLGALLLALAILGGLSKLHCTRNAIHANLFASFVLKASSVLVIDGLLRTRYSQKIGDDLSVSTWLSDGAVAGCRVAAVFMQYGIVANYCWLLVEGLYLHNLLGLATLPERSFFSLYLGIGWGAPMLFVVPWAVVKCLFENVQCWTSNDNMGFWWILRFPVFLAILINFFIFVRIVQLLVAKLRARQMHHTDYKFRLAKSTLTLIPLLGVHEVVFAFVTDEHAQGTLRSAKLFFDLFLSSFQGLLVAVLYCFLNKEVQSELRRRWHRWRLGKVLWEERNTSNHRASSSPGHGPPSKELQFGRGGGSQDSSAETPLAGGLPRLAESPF
T1 sequence (P43220 24-463): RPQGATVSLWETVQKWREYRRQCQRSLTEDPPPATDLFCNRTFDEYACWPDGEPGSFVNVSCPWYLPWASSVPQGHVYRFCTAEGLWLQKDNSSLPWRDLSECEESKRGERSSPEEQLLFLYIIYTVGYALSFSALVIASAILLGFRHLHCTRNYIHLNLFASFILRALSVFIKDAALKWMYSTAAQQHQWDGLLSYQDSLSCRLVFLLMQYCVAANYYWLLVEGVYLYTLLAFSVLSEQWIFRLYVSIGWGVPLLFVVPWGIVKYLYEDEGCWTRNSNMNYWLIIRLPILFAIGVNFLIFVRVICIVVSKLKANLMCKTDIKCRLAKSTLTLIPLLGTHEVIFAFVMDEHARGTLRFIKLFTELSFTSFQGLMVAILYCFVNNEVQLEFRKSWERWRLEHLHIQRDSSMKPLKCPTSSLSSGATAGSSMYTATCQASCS

Row | Structure (SMILES) | hGLP-1 Receptor Relative Potency % (hGLP-1 Receptor) [%] | hGIP Receptor Relative Potency % (hGIP Receptor) [%] | hGcg Receptor Relative Potency % (hGcg Receptor) [%] | EC50 (hGLP-1 Receptor; BHK cells expressing human GLP-1R and CRE-luciferase, 12-point curve, 3 h, 37 °C, assay buffer with 1% ovalbumin, minimum of two replicates) [nM] | EC50 (hGIP Receptor; BHK cells expressing human GIPR and CRE-luciferase, 12-point curve, 3 h, 37 °C, assay buffer with 1% ovalbumin, minimum of two replicates) [nM] | EC50 (hGcg Receptor; BHK cells expressing human GcgR and CRE-luciferase, 12-point curve, 3 h, 37 °C, assay buffer with 1% ovalbumin, minimum of two replicates) [nM]
1 | CCCCCCCCCCCCCCCC(=O)NCCCC[C@H](NC(=O)[C@H](CO)NC(=O)[C@@H]1CCCN1C(=O)[C@@H]1CCCN1C(=O)[C@@H]1CCCN1C(=O)[C@H](C)NC(=O)CNC(=O)[C@H](CO)NC(=O)[C@H](CO)NC(=O)[C@@H]1CCCN1C(=O)CNC(=O)CNC(=O)[C@H](C)NC(=O)[C@H](CC(C)C)NC(=O)[C@H](CC(C)C)NC(=O)[C@H](Cc1c[nH]c2ccccc12)NC(=O)[C@H](CC(N)=O)NC(=O)[C@@H](NC(=O)[C@H](Cc1ccccc1)NC(=O)[C@H](CCC(=O)O)NC(=O)C(C)(C)NC(=O)[C@H](C)NC(=O)[C@H](C)NC(=O)[C@H](CCC(N)=O)NC(=O)[C@H](CCCCN)NC(=O)[C@H](CC(=O)O)NC(=O)[C@H](CC(C)C)NC(=O)[C@H](Cc1ccc(O)cc1)NC(=O)[C@@H](NC(=O)[C@H](CO)NC(=O)[C@H](Cc1ccc(O)cc1)NC(=O)[C@H](CC(=O)O)NC(=O)[C@H](CO)NC(=O)[C@@H](NC(=O)[C@H](Cc1ccccc1)NC(=O)[C@@H](NC(=O)CNC(=O)[C@H](CCC(N)=O)NC(=O)C(C)(C)NC(=O)[C@@H](N)Cc1ccc(O)cc1)[C@@H](C)O)[C@@H](C)O)[C@@H](C)CC)C(C)C)C(N)=O [Compound 5] | 199 | 173 | 33 | – | – | –
2 | CC[C@H](C)[C@H](NC(=O)[C@H](CO)NC(=O)[C@H](Cc1ccc(O)cc1)NC(=O)[C@H](CC(=O)O)NC(=O)[C@H](CO)NC(=O)[C@@H](NC(=O)[C@H](Cc1ccccc1)NC(=O)[C@@H](NC(=O)CNC(=O)[C@H](CCC(N)=O)NC(=O)C(C)(C)NC(=O)[C@@H](N)Cc1ccc(O)cc1)[C@@H](C)O)[C@@H](C)O)C(=O)N[C@@H](Cc1ccc(O)cc1)C(=O)N[C@@H](CC(C)C)C(=O)N[C@@H](CC(=O)O)C(=O)N[C@@H](CCCCN)C(=O)N[C@@H](CCC(N)=O)C(=O)N[C@@H](C)C(=O)N[C@@H](C)C(=O)NC(C)(C)C(=O)N[C@@H](CCC(=O)O)C(=O)N[C@@H](Cc1ccccc1)C(=O)N[C@H](C(=O)N[C@@H](CC(N)=O)C(=O)N[C@@H](Cc1c[nH]c2ccccc12)C(=O)N[C@@H](CC(C)C)C(=O)N[C@@H](CC(C)C)C(=O)N[C@@H](C)C(=O)NCC(=O)NCC(=O)N1CCC[C@H]1C(=O)N[C@@H](CO)C(=O)N[C@@H](CO)C(=O)NCC(=O)N[C@@H](C)C(=O)N1CCC[C@H]1C(=O)N1CCC[C@H]1C(=O)N1CCC[C@H]1C(=O)N[C@@H](CO)C(=O)N[C@@H](CCCCNC(=O)COCCOCCNC(=O)COCCOCCNC(=O)CC[C@H](NC(=O)CCCCCCCCCCCCCCCCC(=O)O)C(=O)O)C(N)=O)C(C)C [Compound 6] | 59 | 23 | 1 | – | – | –
3 | CC[C@H](C)[C@H](NC(=O)[C@H](CO)NC(=O)[C@H](Cc1ccc(O)cc1)NC(=O)[C@H](CC(=O)O)NC(=O)[C@H](CO)NC(=O)[C@@H](NC(=O)[C@H](Cc1ccccc1)NC(=O)[C@@H](NC(=O)CNC(=O)[C@H](CCC(N)=O)NC(=O)C(C)(C)NC(=O)[C@@H](N)Cc1ccc(O)cc1)[C@@H](C)O)[C@@H](C)O)C(=O)N[C@@H](Cc1ccc(O)cc1)C(=O)N[C@@H](CC(C)C)C(=O)N[C@@H](CCC(=O)O)C(=O)N[C@@H](CCCCNC(=O)COCCOCCNC(=O)COCCOCCNC(=O)CC[C@H](NC(=O)CCCCCCCCCCCCCCCCCCC(=O)O)C(=O)O)C(=O)N[C@@H](CCC(N)=O)C(=O)N[C@@H](C)C(=O)N[C@@H](C)C(=O)NC(C)(C)C(=O)N[C@@H](CCC(=O)O)C(=O)N[C@@H](Cc1ccccc1)C(=O)N[C@H](C(=O)N[C@@H](CCC(N)=O)C(=O)N[C@@H](Cc1c[nH]c2ccccc12)C(=O)N[C@@H](CC(C)C)C(=O)N[C@@H](CC(C)C)C(=O)N[C@@H](CCC(=O)O)C(=O)NCC(=O)NCC(=O)N1CCC[C@H]1C(=O)N[C@@H](CO)C(=O)N[C@@H](CO)C(=O)NCC(=O)N[C@@H](C)C(=O)N1CCC[C@H]1C(=O)N1CCC[C@H]1C(=O)N1CCC[C@H]1C(=O)N[C@@H](CO)C(N)=O)C(C)C [Compound 9] (H-Y[Aib]QGTFTSDYSIYLEK([AEEA-AEEA-γGlu-C20 diacid])QAA[Aib]EFVQWLLEGGPSSGAPPPS-NH2) | 220 | 92 | 5 | 0.0031 | 0.0114 | 0.185
4 | CC[C@H](C)[C@H](NC(=O)[C@H](CO)NC(=O)[C@H](Cc1ccc(O)cc1)NC(=O)[C@H](CC(=O)O)NC(=O)[C@H](CO)NC(=O)[C@@H](NC(=O)[C@H](Cc1ccccc1)NC(=O)[C@@H](NC(=O)CNC(=O)[C@H](CCC(N)=O)NC(=O)C(C)(C)NC(=O)[C@@H](N)Cc1ccc(O)cc1)[C@@H](C)O)[C@@H](C)O)C(=O)N[C@@H](Cc1ccc(O)cc1)C(=O)N[C@@H](CC(C)C)C(=O)N[C@@H](CCC(=O)O)C(=O)N[C@@H](CCCCNC(=O)[C@@H](N)CCCCNC(=O)[C@@H](N)CCCCNC(=O)CC[C@H](NC(=O)CCCCCCCCCCCCCCCCCCC(=O)O)C(=O)O)C(=O)N[C@@H](CCC(N)=O)C(=O)N[C@@H](C)C(=O)N[C@@H](C)C(=O)NC(C)(C)C(=O)N[C@@H](CCC(=O)O)C(=O)N[C@@H](Cc1ccccc1)C(=O)N[C@H](C(=O)N[C@@H](CCC(N)=O)C(=O)N[C@@H](Cc1c[nH]c2ccccc12)C(=O)N[C@@H](CC(C)C)C(=O)N[C@@H](CC(C)C)C(=O)N[C@@H](CCC(=O)O)C(=O)NCC(=O)NCC(=O)N1CCC[C@H]1C(=O)N[C@@H](CO)C(=O)N[C@@H](CO)C(=O)NCC(=O)N[C@@H](C)C(=O)N1CCC[C@H]1C(=O)N1CCC[C@H]1C(=O)N1CCC[C@H]1C(=O)N[C@@H](CO)C(N)=O)C(C)C [Compound 10] (H-Y[Aib]QGTFTSDYSIYLEK([εLys-εLys-γGlu-C20 diacid])QAA[Aib]EFVQWLLEGGPSSGAPPPS-NH2) | 244 | 150 | 11 | – | – | –
5 | CC[C@H](C)[C@H](NC(=O)[C@H](CO)NC(=O)[C@H](Cc1ccc(O)cc1)NC(=O)[C@H](CC(=O)O)NC(=O)[C@H](CO)NC(=O)[C@@H](NC(=O)[C@H](Cc1ccccc1)NC(=O)[C@@H](NC(=O)CNC(=O)[C@H](Cc1c[nH]cn1)NC(=O)C(C)(C)NC(=O)[C@@H](N)Cc1ccc(O)cc1)[C@@H](C)O)[C@@H](C)O)C(=O)N[C@@H](Cc1ccc(O)cc1)C(=O)N[C@@H](CC(C)C)C(=O)N[C@@H](CCC(=O)O)C(=O)N[C@@H](CCCCNC(=O)[C@@H](N)CCCCNC(=O)[C@@H](N)CCCCNC(=O)CC[C@H](NC(=O)CCCCCCCCCCCCCCCCCCC(=O)O)C(=O)O)C(=O)N[C@@H](CCC(N)=O)C(=O)N[C@@H](C)C(=O)N[C@@H](C)C(=O)NC(C)(C)C(=O)N[C@@H](CCC(=O)O)C(=O)N[C@@H](Cc1ccccc1)C(=O)N[C@H](C(=O)N[C@@H](CCC(N)=O)C(=O)N[C@@H](Cc1c[nH]c2ccccc12)C(=O)N[C@@H](CC(C)C)C(=O)N[C@@H](CC(C)C)C(=O)N[C@@H](CCC(=O)O)C(=O)NCC(=O)NCC(=O)N1CCC[C@H]1C(=O)N[C@@H](CO)C(=O)N[C@@H](CO)C(=O)NCC(=O)N[C@@H](C)C(=O)N1CCC[C@H]1C(=O)N1CCC[C@H]1C(=O)N1CCC[C@H]1C(=O)N[C@@H](CO)C(N)=O)C(C)C [Compound 11] (H-Y[Aib]HGTFTSDYSIYLEK([εLys-εLys-γGlu-C20 diacid])QAA[Aib]EFVQWLLEGGPSSGAPPPS-NH2) | 7 | 147 | 13 | – | – | –
